According to paper PMC4915685 (PLoS ONE, 2016):

Experiments:
human plasma protein = assay: Plasma protein binding; type: in vitro ADME; conditions: over the range of 0.1 to 10 μg/mL (unpublished results)
[1] = target: T1, dog plasma DPP-4 activity (Canis lupus familiaris, UniProt A0A8I3Q2I8); assay: Inhibition of plasma DPP-4 activity, dog plasma (GP-pNA); type: biochemical
T1 construct: tissue Kitayama Labes Co., Ltd. (animals); host or cells: beagle dog plasma
Experimental: Male Sprague–Dawley rats (7 weeks old, n = 30) and male beagle dogs (2–5 years old, n = 3) were purchased from CLEA Japan (Tokyo, Japan) and Kitayama Labes Co., Ltd. (Nagano, Japan), respectively. […] Rat blood samples were taken from abdominal vein under ether inhalation anesthesia in anesthetized rats before euthanasia by exsanguination. Dog blood samples were collected from anterior limb veins in conscious dogs that were restrained in a retainer. […] Plasma samples were prepared and stored at -80°C before use.

T2DM patients = conditions: cited from earlier work
[2] = design: method as in earlier work; conditions: 100 mg single dose, 168 hours after administration, Japanese healthy volunteers; cited from earlier work
[3] = target: T2, prolyl endopeptidase (PEP) (Rattus norvegicus, UniProt O70196); assay: PEP inhibition assay; type: biochemical
T2 construct: were prepared from rat kidney and brain, respectively; from tissue; host or cells: rat brain
T2 sequence (O70196 1-710): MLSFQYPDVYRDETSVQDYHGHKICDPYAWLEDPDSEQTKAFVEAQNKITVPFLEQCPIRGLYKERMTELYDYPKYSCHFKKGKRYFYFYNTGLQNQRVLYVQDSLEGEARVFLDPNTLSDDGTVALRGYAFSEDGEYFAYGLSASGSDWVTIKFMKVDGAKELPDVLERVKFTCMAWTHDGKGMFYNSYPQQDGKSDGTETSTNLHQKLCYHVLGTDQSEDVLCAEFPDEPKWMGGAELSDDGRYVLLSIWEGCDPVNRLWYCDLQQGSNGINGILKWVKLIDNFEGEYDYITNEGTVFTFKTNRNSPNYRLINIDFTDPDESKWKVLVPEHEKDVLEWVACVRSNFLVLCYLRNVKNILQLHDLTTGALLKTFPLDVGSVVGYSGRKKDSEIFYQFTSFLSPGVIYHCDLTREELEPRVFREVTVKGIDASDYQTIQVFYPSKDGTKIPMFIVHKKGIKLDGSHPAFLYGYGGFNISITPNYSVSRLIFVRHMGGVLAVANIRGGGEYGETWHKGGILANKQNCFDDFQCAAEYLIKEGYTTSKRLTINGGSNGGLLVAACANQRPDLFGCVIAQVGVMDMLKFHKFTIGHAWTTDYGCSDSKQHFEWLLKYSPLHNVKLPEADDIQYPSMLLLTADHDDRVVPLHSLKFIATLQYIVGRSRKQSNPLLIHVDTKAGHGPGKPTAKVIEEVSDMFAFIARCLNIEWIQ

T1 sequence (A0A8I3Q2I8 1-765): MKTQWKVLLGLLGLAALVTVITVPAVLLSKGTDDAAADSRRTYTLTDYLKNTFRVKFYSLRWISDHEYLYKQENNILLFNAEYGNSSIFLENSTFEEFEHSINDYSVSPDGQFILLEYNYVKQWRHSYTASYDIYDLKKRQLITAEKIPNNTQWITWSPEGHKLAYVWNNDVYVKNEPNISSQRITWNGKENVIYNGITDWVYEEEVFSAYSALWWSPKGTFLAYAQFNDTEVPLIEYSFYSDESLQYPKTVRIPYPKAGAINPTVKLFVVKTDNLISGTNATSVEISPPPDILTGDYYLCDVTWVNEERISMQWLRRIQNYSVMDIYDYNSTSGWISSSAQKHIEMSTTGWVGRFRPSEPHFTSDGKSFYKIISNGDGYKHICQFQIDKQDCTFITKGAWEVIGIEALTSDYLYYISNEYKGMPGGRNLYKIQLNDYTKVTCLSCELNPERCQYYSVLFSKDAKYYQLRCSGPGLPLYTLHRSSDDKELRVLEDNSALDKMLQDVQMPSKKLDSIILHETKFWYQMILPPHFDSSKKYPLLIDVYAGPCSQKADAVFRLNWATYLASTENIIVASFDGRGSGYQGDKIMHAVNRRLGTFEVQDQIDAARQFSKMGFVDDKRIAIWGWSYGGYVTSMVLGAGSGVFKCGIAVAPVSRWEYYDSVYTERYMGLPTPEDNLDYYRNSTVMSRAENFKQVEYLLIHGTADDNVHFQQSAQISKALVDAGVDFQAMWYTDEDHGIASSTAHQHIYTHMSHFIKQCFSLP

SMILES | binding to human plasma protein (human plasma protein) | IC50 [1] [nM] | safety in clinical studies (T2DM patients; clinical studies) | efficacy in terms of reduction of HbA1c versus alogliptin 25 mg daily dosing (T2DM patients; trelagliptin 100 mg weekly dosing, T2DM patients) | plasma trelagliptin concentration [mean (SD)] [2] | IC50 [3] [nM]
Cn1c(=O)cc(N2CCC[C@@H](N)C2)n(Cc2ccccc2C#N)c1=O [alogliptin, 2-[6-(3(R)-aminopiperidin-1-yl)-3-methyl-2,4-dioxo-3,4-dihydro-2H-pyrimidin-1-ylmethyl]benzonitrile, reference compound] | 28.2–32.3% |  |  |  |  | 
Cn1c(=O)cc(N2CCC[C@@H](N)C2)n(Cc2cc(F)ccc2C#N)c1=O [trelagliptin, 2-[6-(3(R)-aminopiperidin-1-yl)-3-methyl-2,4-dioxo-3,4-dihydro-2H-pyrimidin-1-ylmethyl]-4-fluorobenzonitrile] | 22.1–27.6% | 6.2 | no major safety concerns | non-inferior | 2.12 (0.679) ng/mL | > 100000
